Experimental data published in PMC4055585, “Pharmacokinetics of Anti-HBV Polyoxometalate in Rats” (PLoS ONE, 2014).
Values joined by “and” are separate entries in the source; they are usually repeats but may differ in a detail not shown here. Equal values may be shown once. Read-outs that look alike come from different tables or passages of the source.

Key:
hepatitis B virus = tested on: hepatitis B virus; parameters: method as in PMID 22264474; conditions: cited from earlier work
[1] = rat, in vivo, iv, 180 mg/kg
[2] = rat, in vivo; for AUC0–96 (area under the curve up to 96 h) / AUC0–∞ (area under the total concentration-time curve) / CL (systemic clearance) / Cmax (maximum concentration) / MRT (mean residence time) / Tmax (time of peak concentration) / Vd (steady-state volume of distribution) / ke (elimination rate constant) / t1/2 (half-life): po
[3] = Urine and feces excretion after oral administration; type: in vivo, Wistar rats; conditions: oral 180 mg/kg
Method: Rats were placed in metabolism cages during the experiment to facilitate urine and feces collection. Urine and feces were collected during 0–1 h, 1–2, 2–4, 4–8, 8–12, 12–24, 24–48 and […]. Urine volume and feces weight were measured, and samples were frozen at −20°C until analysis.
(§1) The urine, bile, postdialysis serum and buffer samples were aliquots into 0.1 mL, treated in the same way as plasma samples.
(§2) Feces, fat and pancreas samples were aliquots into 0.1 g and dipped in 1 mL concentrated H2SO4 in test tubes. […] 3 mL concentrated HNO3was added at 120°C for 12 h until thorough dissolution.
(§3) Concentrations of Compound 1 were determined by atomic spectrometry. Samples were analyzed directly by ICP-MS. Polyoxometalate concentrations were estimated directly from measured tungsten concentrations.

[4] = Bile excretion after oral administration (bile duct cannulation); type: in vivo, Rats; conditions: oral 180 mg/kg, % of the drug tested
Method: Bile excretion: Rats (n = 6, male and female in equal) were anesthetized with diethyl ether, and bile duct were cannulated with a polyethylene tube. After recovery from anesthesia, rates were orally administered Compound 1 at a dose of 180 mg/kg BW. The bile samples were collected during 0–1, 1–2, 2–4, 4–8, 8–12, 12–24 and 24–48 h by bile duct cannulation. The bile volume was measured, and samples were frozen at −20°C until analysis.
as §1, §3

rat plasma protein = assay: Plasma protein binding by equilibrium dialysis; type: in vitro ADME; conditions: for Protein binding rate, Mean: six parallel samples
Method: Various amounts of Compound 1 were added to pooled male rat serum to yield concentrations of 9, 18 and 36 mg/mL. The dialysis membrane was Spectrapor II (Beijing Dingguo Changsheng Biotechnology Co. Ltd, China) with a molecular weight cutoff of 12,000 to 14,000. […] Dialyzed serum and buffer volumes were collected and frozen at −20°C until analysis, and binding data were corrected for fluid shifts that occurred during dialysis. Experiments were done in six parallel samples. The following formula was used to calculate plasma protein binding rate of Compound 1 under different concentrations: [drawing 1]
Cplasma: concentration of Compound 1;
Cbuffer: concentration of Compound 1 in buffer
as §1

[5] = parameters: method as in earlier work; conditions: cited from earlier work
[6] = Tissue distribution after oral administration; type: in vivo, Wistar rats; conditions: oral 180 mg/kg
Method: Five rats for each duration, 2, 24, 48 and 96 h post-dose, were sacrificed by decapitation after administration of Compound 1. The whole brain, heart, liver, spleen, lung, kidney, uterus, testis, ovary, epididymis, stomach, intestine, pancreas, thymus, fat, and skeletal muscle were rapidly dissected and harvested. All tissues and organs were weighed on an analytical balance and frozen at −20°C until analysis.
The tissue samples (except for fat and pancreas) were aliquots into 0.1 g and dipped in 3 mL concentrated HNO3 in test tubes.
as §2, §3

Cs2K4Na[SiW9Nb3O40].H2O [Compound 1]
secretion of HBV antigens and HBV DNA (hepatitis B virus; HepG2.2.15 cells): effectively suppressed
activity against HBV (hepatitis B virus; HepG 2.2.15): high activity against HBV
toxicity (hepatitis B virus; HepG 2.2.15): low toxicity
AUC0–96 (area under the curve up to 96 h) [1]: 2549 ± 327.3 µg·h/mL
AUC0–∞ (area under the total concentration-time curve) [1]: 2965 ± 342.8 µg·h/mL
CL (systemic clearance) [1]: 15.34 ± 1.695 mL/h
Cmax (maximum concentration) [1]: 235.4 ± 66.91 µg/mL
MRT (mean residence time) [1]: 47.05 ± 3.529 h
Tmax (time of peak concentration) [1]: 8.34 ± 5.16 min
Vd (steady-state volume of distribution) [1]: 679.7 ± 114.7 mL
compartment model fitted by the pharmacokinetic behavior [1]: two compartment model
ke (elimination rate constant) [1]: 0.023 ± 0.004 h⁻¹
t1/2 (half-life) [1]: 30.76 ± 4.658 h
Tmax range [2]: 6 to 180 min
half-life range [2]: 20 to 30 h
absolute bioavailability ([2]; 180 mg/kg): 14.67%
AUC0–96 (area under the curve up to 96 h) ([2]; 45 mg/kg): 150.9 ± 87.15 µg·h/mL
AUC0–∞ (area under the total concentration-time curve) ([2]; 45 mg/kg): 165.1 ± 94.98 µg·h/mL
CL (systemic clearance) ([2]; 45 mg/kg): 86.96 ± 42.45 mL/h
Cmax (maximum concentration) ([2]; 45 mg/kg): 11.13 ± 8.370 µg/mL
MRT (mean residence time) ([2]; 45 mg/kg): 36.45±4.495 H
Tmax (time of peak concentration) ([2]; 45 mg/kg): 2.000±0.632 H
Vd (steady-state volume of distribution) ([2]; 45 mg/kg): 3437 ± 1593 mL
ke (elimination rate constant) ([2]; 45 mg/kg): 0.025 ± 0.002 h⁻¹
t1/2 (half-life) ([2]; 45 mg/kg): 27.91±2.606 H
AUC0–96 (area under the curve up to 96 h) ([2]; 180 mg/kg): 373.9 ± 112.7 µg·h/mL
AUC0–∞ (area under the total concentration-time curve) ([2]; 180 mg/kg): 410.1 ± 128.5 µg·h/mL
CL (systemic clearance) ([2]; 180 mg/kg): 117.1 ± 29.49 mL/h
Cmax (maximum concentration) ([2]; 180 mg/kg): 30.85 ± 14.25 µg/mL
MRT (mean residence time) ([2]; 180 mg/kg): 35.42±5.940 H
Tmax (time of peak concentration) ([2]; 180 mg/kg): 1.833±0.753 H
Vd (steady-state volume of distribution) ([2]; 180 mg/kg): 4620 ± 829.9 mL
ke (elimination rate constant) ([2]; 180 mg/kg): 0.025 ± 0.003 h⁻¹
t1/2 (half-life) ([2]; 180 mg/kg): 27.88±3.221 H
AUC0–96 (area under the curve up to 96 h) ([2]; 720 mg/kg): 1216 ± 402.2 µg·h/mL
AUC0–∞ (area under the total concentration-time curve) ([2]; 720 mg/kg): 1316 ± 449.7 µg·h/mL
CL (systemic clearance) ([2]; 720 mg/kg): 153.7 ± 62.35 mL/h
Cmax (maximum concentration) ([2]; 720 mg/kg): 49.29 ± 9.939 µg/mL
MRT (mean residence time) ([2]; 720 mg/kg): 37.57±4.676 H
Tmax (time of peak concentration) ([2]; 720 mg/kg): 2.167±0.753 H
Vd (steady-state volume of distribution) ([2]; 720 mg/kg): 5583 ± 2416 mL
ke (elimination rate constant) ([2]; 720 mg/kg): 0.028 ± 0.003 h⁻¹
t1/2 (half-life) ([2]; 720 mg/kg): 24.92±2.178 H
total excreted, % of the total amount administered ([3]; till 48 h): about 30.84%
total excreted, % of the total amount administered ([3]; till 72 h): about 31.1%
accumulative excretion rate, bile [4]: about 0.42%
extent of binding to rat plasma protein (rat plasma protein; 36 mg/ml): moderately bound
extent of binding to rat plasma protein (rat plasma protein; 9–18 mg/ml): highly bound
Protein binding rate (single samples) (rat plasma protein; added concentration 9 mg/mL, rat serum, dialysis 48 h, 37°C, pH 7.4): 47.79% and 54.71% and 73.72% and 62.68% and 67.76% and 66.13%
Protein binding rate, Mean (rat plasma protein; added concentration 9 mg/mL, dialysis 48 h): 62.13%
Protein binding rate, Mean (rat plasma protein; added concentration 18 mg/mL, dialysis 48 h): 71.20%
Protein binding rate, Mean (rat plasma protein; added concentration 36 mg/mL, dialysis 48 h): 49.00%
reproductive toxicity [5]: no obvious reproductive toxicity
content in kidney and liver relative to the other tissues [6]: 10–70 times
deposition in the brain [6]: Less deposition
tissue with highest deposition ([6]; 16 tissues): kidney, followed by the stomach, intestine and liver
content in tissues at 96 h relative to peak content ([6]; 96 h): less than 10%
